Results as given in ChEMBL document CHEMBL1137525, “Additional level of information about complex interaction between non-nucleoside inhibitor and HIV-1 reverse transcriptase using biosensor-based thermodynamic analysis” (Bioorg Med Chem, 2007).

Key:
[1] = molecular target: T1, Human immunodeficiency virus type 1 reverse transcriptase (Human immunodeficiency virus 1, UniProt Q72547, Y181C); assay: Binding affinity to HIV1 reverse transcriptase Y181C mutant at 15 degC
[2] = molecular target: T2, Human immunodeficiency virus type 1 reverse transcriptase (Human immunodeficiency virus 1, UniProt Q72547, K103N); assay: Binding affinity to HIV1 reverse transcriptase K103N mutant at 25 degC
[3] = molecular target: T1, Human immunodeficiency virus type 1 reverse transcriptase; assay: Binding affinity to HIV1 reverse transcriptase Y181C mutant at 5 degC
[4] = molecular target: T1, Human immunodeficiency virus type 1 reverse transcriptase; assay: Binding affinity to HIV1 reverse transcriptase Y181C mutant at 25 degC
[5] = molecular target: T2, Human immunodeficiency virus type 1 reverse transcriptase; assay: Binding affinity to HIV1 reverse transcriptase K103N mutant at 5 degC
[6] = molecular target: T2, Human immunodeficiency virus type 1 reverse transcriptase; assay: Binding affinity to HIV1 reverse transcriptase K103N mutant at 15 degC
[7] = molecular target: T2, Human immunodeficiency virus type 1 reverse transcriptase; assay: Binding affinity to HIV1 reverse transcriptase K103N mutant at 35 degC
[8] = molecular target: T1, Human immunodeficiency virus type 1 reverse transcriptase; assay: Binding affinity to HIV1 reverse transcriptase Y181C mutant at 35 degC

Compound `CCC(=O)c1ccc(F)c([C@@H]2C[C@@H]2NC(=O)Nc2ccc(C#N)cn2)c1O` has a Kd [1] of 0.79 nM, a Kd [2] of 4.91 nM and a Kd [3] of 0.627 nM. For the same compound, the Kd [4] was 1.5 nM, the Kd [5] was 0.596 nM and the Kd [6] was 0.997 nM. It also gave a Kd [7] of 3.49 nM and a Kd [8] of 2.89 nM.
